The values that follow come from PubChem BioAssay (NCI).

Some test systems named below: RXF 393 renal; SNB-19 CNS; DU-145 prostate; T-47D breast; HS 578T breast; HCT-116 colon; SW-620 colon; IGROV1 ovarian.
Assay in all cases: NCI tumour cell line growth inhibition, 48 h

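48-hour exposure; five concentrations; linearly interpolated endpoints. At the GI50, growth is halved. Definition used: TGI = concentration required for complete inhibition of growth.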

Consider `CCN(CC)Cc1cc(Nc2nc(NC3CCC(N(C)C)CC3)c3ccccc3n2)ccc1OC` (stereo unspecified), for which the GI50 with RXF 393 renal is 578 nM; in the assay on SNB-19 CNS, 8600 nM; with DU-145 prostate it was 10500 nM; in the assay with T-47D breast, 5400 nM; in the assay with HS 578T breast, 677 nM; in the assay on HCT-116 colon it was 3370 nM. Further, the GI50 was 3180 nM in the assay with SW-620 colon and 12800 nM with IGROV1 ovarian. Also, the TGI with RXF 393 renal worked out at 8.44 µM; with SNB-19 CNS it was 22.6 µM; in the assay on DU-145 prostate it was 22.2 µM; in the assay with T-47D breast, 18.9 µM; with HS 578T breast, 14.5 µM; in the assay with HCT-116 colon, 12.8 µM. In addition, the TGI with SW-620 colon worked out at 13.3 µM; with IGROV1 ovarian, 34.3 µM.

Consider `COc1ccc2c(c1)c(-c1nc(-c3c[nH]c4ncccc34)cs1)cn2CCCN1CCOCC1`, for which the GI50 in the assay with RXF 393 renal is 2090 nM; with SNB-19 CNS, 2860 nM; in the assay on DU-145 prostate, 3150 nM; with T-47D breast it was 2070 nM; with HS 578T breast, 2080 nM; in the assay with HCT-116 colon, 1850 nM. For the same compound, the GI50 in the assay with SW-620 colon was 2260 nM; in the assay with IGROV1 ovarian, 2090 nM. Moreover, the TGI in the assay on RXF 393 renal worked out at 4.88 µM; in the assay on SNB-19 CNS, 8.71 µM; with DU-145 prostate, 11 µM; in the assay on T-47D breast it was 7.83 µM; with HS 578T breast, 6.92 µM; in the assay with HCT-116 colon it was 4.04 µM. In addition, the figures for the TGI in the assay on SW-620 colon and with IGROV1 ovarian were 5.24 µM and 8.69 µM, respectively.

On to `FC(F)(F)Oc1cccc(-c2cc(NCCCCCCNc3cc(-c4cccc(OC(F)(F)F)c4)nc4ccc(N5CCCC5)cc34)c3cc(N4CCCC4)ccc3n2)c1`, for which the GI50 was 1650 nM in the assay with RXF 393 renal; 1550 nM in the assay with SNB-19 CNS; 2460 nM in the assay on DU-145 prostate; 2210 nM in the assay on HCT-116 colon; 1810 nM in the assay on SW-620 colon; 1520 nM in the assay with IGROV1 ovarian. The TGI in the assay on RXF 393 renal turned out to be 3.22 µM; with SNB-19 CNS it was 2.98 µM; in the assay on DU-145 prostate it was 5.76 µM; with HCT-116 colon, 5.54 µM; with SW-620 colon, 3.35 µM; with IGROV1 ovarian it was 3.12 µM.

Consider `CCCCCCCCCCCC[N+]1(CCCCCCCCCCCC)CCCC(C)C1` (stereo unspecified), for which the GI50 is 198 nM in the assay on RXF 393 renal; 570 nM in the assay with DU-145 prostate; 472 nM with HS 578T breast; 185 nM in the assay on HCT-116 colon; 303 nM in the assay on SW-620 colon. Further, the TGI in the assay with RXF 393 renal is 0.894 µM; in the assay with DU-145 prostate it was 1.87 µM; in the assay on HS 578T breast, 2.2 µM; with HCT-116 colon, 1.21 µM; in the assay with SW-620 colon, 1.33 µM.

With `O=[N+]([O-])c1ccc(Cl)c2c([N+](=O)[O-])cccc12`, the TGI was over 10 µM in the assay with RXF 393 renal; over 10 µM with SNB-19 CNS; over 10 µM in the assay with T-47D breast; 5.32 µM with HCT-116 colon; over 10 µM in the assay on SW-620 colon; over 10 µM in the assay with IGROV1 ovarian.

As to `COCC([C@@H](O)C(O)C(=O)NCC[C@@H](C)c1nc(/C=C/CC2OC3(C[C@H](O)C2C)OC(C(C[C@H](O)C(C)[C@H](O)C(C)/C=C(C)/C(C)=C/C=C/C(C)=C/C#N)OC)[C@@H](OP(=O)(O)O)C3(C)C)co1)N(C)C` (stereo partly specified), the TGI turned out to be 0.000343 µM in the assay on SNB-19 CNS; 0.000322 µM in the assay with DU-145 prostate; 0.00195 µM in the assay with T-47D breast; 0.000391 µM in the assay on HS 578T breast; 0.000315 µM with HCT-116 colon; 0.000327 µM in the assay on SW-620 colon. The same compound displayed a TGI in the assay with IGROV1 ovarian of 0.000296 µM.

Turning to `N#Cc1nc2c(S(=O)(=O)c3ccc(Cl)cc3)c(N)n(Nc3cccc(Cl)c3)c2nc1C#N`, the GI50 with SNB-19 CNS is 137 nM; in the assay with T-47D breast it was 25.8 nM; in the assay on HCT-116 colon, 15 nM; in the assay with SW-620 colon, 14 nM; in the assay on IGROV1 ovarian, 38.5 nM. The TGI is over 100 µM with DU-145 prostate, 0.0733 µM in the assay on SW-620 colon and 0.179 µM in the assay with IGROV1 ovarian.

For the compound `O=C1CC(c2ccccc2)Oc2ccccc21` (stereo unspecified), the TGI is 94.4 µM with RXF 393 renal; 83.4 µM in the assay on SNB-19 CNS; over 100 µM in the assay with DU-145 prostate; over 100 µM in the assay on T-47D breast; over 100 µM in the assay on HS 578T breast; over 100 µM in the assay on HCT-116 colon. In addition, the TGI with IGROV1 ovarian was over 100 µM.

For the compound `COc1ccc(OC)c(NCC(=O)n2nc(/C=C\c3ccc(O)c(OC)c3)cc2/C=C\c2ccc(O)c(OC)c2)c1`, the GI50 in the assay with RXF 393 renal was 1510 nM; in the assay on SNB-19 CNS, 2620 nM; in the assay with DU-145 prostate, 3230 nM; in the assay on T-47D breast, 3050 nM; in the assay with HS 578T breast, 2310 nM; in the assay on SW-620 colon, 2030 nM. In addition, the GI50 in the assay with IGROV1 ovarian is 2910 nM. In addition, the TGI in the assay on RXF 393 renal is 3.19 µM; in the assay on SNB-19 CNS it was 10.3 µM; with DU-145 prostate, 12.7 µM; in the assay with T-47D breast, 14.6 µM; in the assay on HS 578T breast, 19.2 µM; in the assay with SW-620 colon, 5.48 µM. This compound displayed a TGI in the assay on IGROV1 ovarian of 21 µM.

On to `CCN1C(=S)N(CC)C2C1NC(=S)N2/N=C/C=C/c1ccccc1OC` (stereo unspecified), for which the GI50 with RXF 393 renal is 92 nM; with SNB-19 CNS it was 480 nM; in the assay with DU-145 prostate it was 354 nM; in the assay with HS 578T breast it was 322 nM; in the assay on HCT-116 colon it was 326 nM; in the assay on SW-620 colon it was 338 nM. In the assay on IGROV1 ovarian, the GI50 was 506 nM. For the same compound, the TGI with RXF 393 renal is 0.498 µM; with SNB-19 CNS, over 100 µM; in the assay with DU-145 prostate it was 25.3 µM; with HS 578T breast it was over 100 µM; with HCT-116 colon, over 36.3 µM; in the assay with SW-620 colon, over 100 µM. Moreover, in the assay on IGROV1 ovarian, the TGI was over 100 µM.

In the case of `COc1ccc2sc3c(NCCCN)nc4ccccc4c3c(=O)c2c1`, the GI50 is 1500 nM in the assay on RXF 393 renal; 1810 nM in the assay on DU-145 prostate; 1740 nM in the assay on T-47D breast; 1500 nM in the assay with HCT-116 colon; 1760 nM in the assay on SW-620 colon; 1670 nM in the assay on IGROV1 ovarian. For the same compound, the TGI in the assay with RXF 393 renal turned out to be 2.9 µM; in the assay on DU-145 prostate, 3.31 µM; in the assay with T-47D breast it was 3.65 µM; with HCT-116 colon, 2.85 µM; with SW-620 colon, 3.44 µM; in the assay on IGROV1 ovarian, 3.19 µM.

For `COc1ccc(C(=O)c2cc(OC)c(OC)c(OC)c2OC)cc1O`, the GI50 was 4490 nM in the assay with SNB-19 CNS; 4640 nM with DU-145 prostate; 4640 nM in the assay with T-47D breast; 3410 nM in the assay with HS 578T breast; 3980 nM in the assay on HCT-116 colon; 2990 nM in the assay with SW-620 colon. Besides, the GI50 in the assay on IGROV1 ovarian was 7500 nM. In addition, the TGI in the assay on SNB-19 CNS, in the assay with DU-145 prostate, in the assay with T-47D breast, in the assay on HS 578T breast, in the assay with HCT-116 colon and with SW-620 colon was over 100 µM each time. In the assay on IGROV1 ovarian, this compound came in with a TGI of over 100 µM.
